Experimental data: patent publication US20070154449A1, “TIGHT JUNCTION MODULATING PEPTIDES FOR ENHANCED MUCOSAL DELIVERY OF THERAPEUTIC COMPOUNDS” (Nastech Pharmaceutical Company Inc., priority 2005, published 2007)

Legend:
[1] = test system: human-derived tracheal/bronchial epithelial cells (EpiAirway™ Tissue model system); test: Cytotoxicity (LDH assay), EpiAirway tissue model; type: cell-based
Experimental: The amount of cell death was assayed by measuring the release of lactate dehydrogenase (LDH) from the cells into the apical medium using a CytoTox 96 Cytotoxicity Assay Kit (Promega Corp., Madison, Wis.). One percent Octylphenolpoly (ethyleneglycolether)×(Triton X-100™) diluted in phosphate buffered saline (PBS) causes 100% lysis in cultured cells and served herein as a positive control for the LDH assay. Following the one hour incubation period with a test formulation (refer to Table 4 in Example 2 for details of test formulations), the total liquid volume of each insert was brought to a final volume of 200 μl with culture medium. The apical medium was then mixed by pipetting four times with a multichannel pipette set to a 100 μl volume. After mixing, a 100 μl sample from the apical side of each insert was transferred to a new 96-well plate. The apical media samples were sealed with a plate sealer and stored at room temperature for same day analysis or stored overnight at 4° C. for analysis the next day. To measure LDH levels, 5 μl of the 100 μl apical media sample was diluted in 45 μl DPBS in a new 96-well plate. Fresh, cell-free culture medium will be used as a blank. Fifty microliters of substrate solution was added to each well and incubated for 30 minutes at room temperature away from direct light. Following the 30 minute incubation, 50 μl of stop solution was added to each well. Optical density (OD) was measured at 490 nm with a uQuant absorbance plate reader from Biotek Instruments. The measurement of LDH release into the apical media indicates relative cytotoxicity of the samples. Percent cytotoxicity for each test formulation was calculated by subtracting the measured absorbance of the PBS control (basal level of LDH release) from the measured absorbance of the individual test formulation and then dividing that value by the measured absorbance for the 1% Triton X-100™ positive control, multiplied by 100.
The formula used to calculate percent cytotoxicity is as follows: [formula] Osmolality
(§1) Of the total 300 μl volume for each test formulation, only a 20 μl sample was applied to the human-derived tracheal/bronchial epithelial cells (EpiAirway™ Tissue model system) in order to assess the effect each test formulation had on TER, LDH and sample permeation.

[2] = test system: human-derived tracheal/bronchial epithelial cells (EpiAirway™ Tissue model system); test: FITC-Dextran (FD3) permeation assay, EpiAirway tissue model; type: cell-based; conditions: 25 μM peptide, 1 h at 37° C.
Experimental: A FITC labeled dextran with a molecular weight 3000 (FD3) was used to assess the efficacy of individual TJMP on epithelial cell monolayer permeation. The tissue insert plates were transferred to a 96-well receiver plate containing 200 μl of DPBS++ as basal media. The apical surface of each tissue culture insert was incubated with a 20 μl sample of a single test formulation (refer to Table 4 in Example 2 for details of test formulations) for one hour at 37° C. in the dark on a shaker (˜100 rpm). Following the 1 hour incubation period, underlying basal media samples were taken from each tissue culture insert and temporarily stored in the dark at room temperature until FD3 levels were quantified by fluorescence spectroscopy. For FD3 measurements, a 150 μl of basal media sample was transferred to a black, clear bottom 96-well plate. Fluorescence emission at 528/20 following excitation at 485/20 were measured using a FLx800 fluorescence plate reader from Biotek Instruments.
Permeation was calculated as: [formula] [formula] Formula terms for permeation defined: […]
as §1

## CC(C)C[C@H](NC(=O)[C@H](C)NC(=O)[C@H](CCCCN)NC(=O)[C@H](CC(C)C)NC(=O)[C@H](C)NC(=O)[C@H](CC(C)C)NC(=O)[C@H](CCCCN)NC(=O)[C@H](CC(C)C)NC(=O)[C@H](C)NC(=O)[C@H](CC(C)C)NC(=O)[C@@H](N)CCCCN)C(=O)N[C@@H](CCCCN)C(=O)N[C@@H](C)C(=O)N[C@@H](C)C(=O)N[C@@H](CC(C)C)C(=O)N[C@@H](CCCCN)C(=O)N[C@@H](CC(C)C)C(=O)N[C@@H](C)C(N)=O [PN159]
[1]; 25 μM peptide, 1 h incubation, % of 1% Triton X-100 control
  LDH: 31%
[1]; PN159 (25, 50, 100 μM) with galantamine lactate 40 mg/ml
  cytotoxicity as measured by LDH: low
[2]
  % FD3 Permeation: 8%
